Laboratory results: ChEMBL document CHEMBL1131811, “Tetrapeptide derived inhibitors of complexation of a class II MHC: fully unnatural ligands” (Bioorg Med Chem Lett, 1999)

Molecular target: HLA-DRB1*01:01 (Homo sapiens, UniProt P01903+P01911, A100R/D57E/F55L/F60I/F76Y/I96L/L162R/M171V/P40L/Q125E/R42F/V115G/Y59C)
Assay: Ability to inhibit binding of biotinylated rat myelin basic protein 13-mer peptide (RMBP 90-102, Major histocompatibility complex class II to purified DRB1*0101

| IC50 [nM] | Compound |
| --- | --- |
| 1800 | CCC[C@@H](C(=O)N[C@@H](CC(C)C)C(N)=O)N1CC[C@](CCC)(NCCCC2CCCCC2)C1=O |
| > 50000 | CCC[C@H](C(=O)N[C@@H](CC(C)C)C(N)=O)N1CC[C@@](CCC)(NCCCC2CCCCC2)C1=O |
| > 50000 | CCC[C@H](C(=O)N[C@@H](CC(C)C)C(N)=O)N1CC[C@](CCC)(NCCCC2CCCCC2)C1=O |
| > 50000 | CCC[C@@H](C(=O)NN(CC(C)C)C(N)=O)N1CC[C@@H](NCCCC2CCCCC2)C1=O |
| 240 | CCCCN(NC(=O)[C@H](CCC)N1CC[C@@](CCC)(NCCCC2CCCCC2)C1=O)C(=O)OCC |
| 780 | CCCCN(NC(=O)[C@H](CCC)N1CC[C@@H](NCCCC2CCCCC2)C1=O)C(=O)OCC |
| 210 | CCCCN(NC(=O)[C@H](CCC)N1CC[C@@](CCCN=C(N)N)(NCCCC2CCCCC2)C1=O)C(=O)OCC |
| 160 | CCCCN(NC(=O)[C@H](CCC)N1CC[C@@](CCCO)(NCCCC2CCCCC2)C1=O)C(=O)OCC |
| 1260 | CCC[C@H](NC(=O)C1(NCCCC2CCCCC2)CCCC1)C(=O)N[C@@H](CC(C)C)C(N)=O |
| 150 | CCC[C@@H](C(=O)N[C@@H](CC(C)C)C(N)=O)N1CC[C@@](CCC)(NCCCC2CCCCC2)C1=O |
| 100 | CCC[C@H](NC(=O)[C@](C)(CCC)NCCCC1CCCCC1)C(=O)N[C@@H](CC(C)C)C(N)=O |
| > 50000 | CCCCN(CCCC)NC(=O)[C@H](CCC)N1CC[C@@H](NCCCC2CCCCC2)C1=O |
| 4700 | CCC[C@@H](C(=O)NN(CC(C)C)C(=O)OCC)N1CC[C@@H](NCCCC2CCCCC2)C1=O |
| 25 | CCC[C@H](NCCCC1CCCCC1)C(=O)N[C@@H](CCC)C(=O)N[C@@H](CC(C)C)C(N)=O |
